# In patent US10669310B2, “Peptide for cancer treatment and pharmaceutical composition containing same” (TOKUSHIMA UNIVERSITY, priority 2016, dated 2020):
# pIC50: −log10 of the molar value. Read-outs that look alike come from different tables or passages of the source. *1 amine or outer side, *2 acyl side, *3 side chain or, on linkers, in order; H or OH if unused. Where a SMILES comes first, the peptide text is derived from it. Bridges are numbered along the chain shown (N, C = ends). [ ]: non-standard residue; d: D form. NH(CH2)4NH = C(CCN[*:2])CN[*:1]
# Legend:
# MCF-7 cells = type: cell-based, human; details: for duration of significant cell growth inhibitory effects: 1 μM, E2-dependent growth of MCF-7
# Protocol: (§1) Human breast cancer cell line MCF-7 and mammary epithelial cell line MCF-10A were purchased from American Type Culture Collection (ATCC, Manassas, Va., USA). Breast cancer cell line KPL-3C (J. Kurebayashi, et al., Br. J. Cancer 74, 200-207 (1996)) was kindly provided by Dr. Junichi Kurebayashi (Kawasaki Medical School). All cell lines were monolayer cultured in an appropriate medium supplemented with 10% FBS. The cells were maintained at 37° C. under humidified atmosphere containing 5% CO2.
# (§2) In each experiment, the respective cells were seeded in a 48-well plate (2×10^4 cells/mL), a 6-well plate (3×10^5 cells/mL), or a 10-cm dish (2×10^6 cells/10 mL). MCF-7 cells were seeded in MEM (Thermo Fisher Scientific) supplemented with 10% FBS (Nichirei Biosciences Inc., Tokyo, Japan), 1% Antibiotic/Antimycotic solution (Thermo Fisher Scientific, Waltham, Mass., USA), 0.1 mM NEAA (Thermo Fisher Scientific), 1 mM sodium pyruvate (Thermo Fisher Scientific), and 10 μg/mL insulin (Sigma, St. Louis, Mo., USA). KPL-3C cells were seeded in RPMI (Thermo Fisher Scientific) supplemented with 10% FBS and 1% Antibiotic/Antimycotic solution. MCF-10A cells were seeded in MEBM (Lonza) supplemented with a Single Quots kit (BPE, hydrocortisone, hEGF, insulin, gentamycin/amphoterin-B) (Lonza, Walkersville, Md., USA) and 100 ng/mL cholera toxin. For 17β-estradiol (E2) (Sigma) stimulation, the media for MCF-7 and KPL-3C were changed to phenol red-free DMEM/F12 (Thermo Fisher Scientific) supplemented with 10% FBS, 1% Antibiotic/Antimycotic solution, 0.1 mM NEAA, 1 mM sodium pyruvate, and 10 μg/mL insulin on the day after seeding. Twenty-four hours later, the cells were treated with 10 nM E2 and a peptide (for example, 11R-ERAP or a stapled ERAP), or with 10 nM E2 alone.
# When carrying out treatment with tamoxifen (Sigma) or fulvestrant (LKT laboratories, St. Paul, Minn., USA), cells were treated with 10 nM tamoxifen or 2 μM fulvestrant simultaneously with the above-mentioned treatment with E2 and a peptide or with E2 alone.
# Cell growth assays on MCF-7, KPL-3C, and MCF-10A were carried out as described previously using a Cell Counting Kit-8 (CCK-8) (Dojindo, Kumamoto, Japan) (T. Yoshimaru, et al., Nat. Commun. 4, 2443 (2013)). The data are shown by mean±SE of three independent experiments.
# [1] = type: in vivo; details: i.p. every day or every four days, 28 days
# Protocol: KPL-3C cell suspensions (1×10^7 cells/mouse) were mixed with an equal volume of Matrigel (BD) and injected (200 μL in total) into the mammary fat pads of 6-week-old female BALB/c nude mice (Charles River Laboratories, Tokyo, Japan). The mice were housed in a pathogen-free isolation facility with a twelve-hour light/dark cycle and were fed solid rodent chow and water ad libitum. The tumors developed over several days and reached sizes of approximately 100 mm^3 [calculated as ½×(width×length^2)]. The mice were randomized into the following eleven treatment groups (five heads per group):
# E2 was administered via application of a solution to the neck skin, and regarding the other treatments, administration was performed via intraperitoneal injection unless other administration methods are stated. The tumor volume was measured with calipers for 28 days, and then the mice were subjected to scheduled sacrifice to remove tumors. All the experiments were performed in accordance with the guidelines of the animal facility at Tokushima University.
# BIG3-PHB2 interaction = molecular target: T1, BIG3-PHB2 interaction (Homo sapiens, UniProt Q99623); experiment: Co-immunoprecipitation with anti-BIG3 antibody in MCF-7 cells; type: cell-based; details: MCF-7, 1 μM, 24 hours after treatment
# T1 construct: complex formation between the endogenous BIG3 and PHB2 in ERα-positive breast cancer cell line MCF-7; endogenous in cells; host or cells: MCF-7
# Protocol: Immunoblot analyses were performed as described previously (T. Yoshimaru, et al., Nat. Commun. 4, 2443 (2013)). After performing SDS-PAGE, the membranes blotted with proteins were blocked with 4% BlockAce solution (Dainippon Pharmaceutical, Osaka, Japan) for three hours and then incubated with antibodies against the following proteins: BIG3 (1:1,000) (T. Yoshimaru, et al., Nat. Commun. 4, 2443 (2013)); PHB2 (1:1,000) (Abeam, Cambridge, UK); Akt, phosphorylated Akt (S473) (587F11, 1:1,000); p44/42 MAPK, phosphorylated p44/42 MAPK (T202/Y204) (1:1,000); α/β-tubulin (1:1,000) (Cell Signaling Technology, Danvers, Mass., USA); and LMNB1 (1:100) (Sigma). After incubation with an HRP-labeled secondary antibody (anti-mouse IgG-HRP, 1:5,000; anti-rat IgG-HRP; 1:5,000; or anti-rabbit IgG-HRP, 1:1,000) (Santa Cruz Biotechnology, Dallas, Tex., USA) for one hour, the blots were developed with an Enhanced Chemiluminescence (ECL) system (GE Healthcare, Buckinghamshire, UK) and scanned using an Image Reader LAS-3000 mini (Fujifilm, Tokyo, Japan). All the experiments were performed at least in triplicate.
# Immunoprecipitation analysis was performed as described previously (T. Yoshimaru, et al., Nat. Commun. 4, 2443 (2013)). Cell lysates were pre-cleared with normal IgG and rec-Protein G Sepharose 4B (Thermo Fisher Scientific) at 4° C. for three hours. Then, the supernatants were incubated with 5 μg of an antibody against BIG3 or an antibody against PHB2 at 4° C. for twelve hours. Next, the antigen-antibody complexes were precipitated using rec-Protein G Sepharose 4B at 4° C. for one hour. The immunoprecipitated protein complexes were washed several times with a lysis buffer. Then, SDS-PAGE and immunoblot analyses were carried out as described above.
# [2] = In vitro blood-brain barrier permeability test; type: in vitro ADME
# Protocol: BIG3 is expressed in the brain though expression is weak (Kim, J. W. et al., Cancer Sci. 100, 1468-1478 (2009)). Then, since there were concerns of side effects due to the transfer of stapled ERAP to the brain, blood-brain-barrier permeability test was carried out on stapled ERAP. Blood-brain-barrier permeability of stapled ERAP (No. 12) was examined by placing stapled ERAP (No. 12) to the inner side (vascular cavity side) of the insert of a blood-brain barrier permeability kit, and measuring the concentration of stapled ERAP (No. 12) that passed through a filter specialized for intracerebral transferability assay and leaked into the well (cerebral parenchyma side) of the plate in 30 minutes. The permeability coefficient (Papp) at this time was calculated (2 or less: very low permeability; 2 to 10: low permeability; 10 to 20: high permeability; and 20 or higher: very high permeability).
# MCF-10A cells = experiment: Cell growth (MTT) assay, MCF-10A cells; type: cell-based, human; details: normal mammary epithelial cells, ERα-negative and BIG3-negative
# Protocol: as §1
# as §2, with “For 17β-estradiol (E2) (Sigma) stimulation, the media for MCF-7 and KPL-3C were changed to phenol red-free DMEM/F12 (Thermo Fisher Scientific) supplemented with 10% FBS, 1% Antibiotic/Antimycotic solution, 0.1 mM NEAA, 1 mM sodium pyruvate, and 10 μg/mL insulin on the day after seeding. Twenty-four hours later, the cells were treated with 10 nM E2 and a peptide (for example, 11R-ERAP or a stapled ERAP), or with 10 nM E2 alone.” left out
# T1 sequence (Q99623 2-299 limits assumed): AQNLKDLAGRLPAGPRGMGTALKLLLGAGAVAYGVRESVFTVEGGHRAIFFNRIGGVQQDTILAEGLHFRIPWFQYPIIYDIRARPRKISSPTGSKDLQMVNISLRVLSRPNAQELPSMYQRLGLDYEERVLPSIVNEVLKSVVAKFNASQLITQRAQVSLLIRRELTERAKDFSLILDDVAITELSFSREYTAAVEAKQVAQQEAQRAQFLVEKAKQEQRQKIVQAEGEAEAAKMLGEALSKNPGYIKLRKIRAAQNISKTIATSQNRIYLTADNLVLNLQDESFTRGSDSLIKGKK
molecule,measurement,setting,value
"CSCC[C@H](NC(=O)[C@H](CCC(N)=O)NC(=O)CNC(=O)CNC(=O)CNC(=O)[C@H](CCCNC(=N)N)NC(=O)[C@H](CCCNC(=N)N)NC(=O)[C@H](CCCNC(=N)N)NC(=O)[C@H](CCCNC(=N)N)NC(=O)[C@H](CCCNC(=N)N)NC(=O)[C@H](CCCNC(=N)N)NC(=O)[C@H](CCCNC(=N)N)NC(=O)[C@H](CCCNC(=N)N)NC(=O)[C@H](CCCNC(=N)N)NC(=O)[C@H](CCCNC(=N)N)NC(=O)[C@@H](N)CCCNC(=N)N)C(=O)N[C@@H](CC(C)C)C(=O)N[C@@H](CO)C(=O)N[C@@H](CC(=O)O)C(=O)N[C@@H](CC(C)C)C(=O)N[C@H](C(=O)N[C@@H](CC(C)C)C(=O)N[C@@H](CCC(N)=O)C(=O)N[C@@H](CC(C)C)C(=O)N[C@@H](CCCNC(=N)N)C(=O)N[C@@H](CCC(N)=O)C(=O)N[C@@H](CCCNC(=N)N)C(=O)O)[C@@H](C)O [11R-ERAP, 11R-GGG-QMLSDLTLQLRQR, reference compound] (H-RRRRRRRRRRRGGGQMLSDLTLQLRQR-OH; N-terminus and C-terminus assumed)",inhibition rate of E2-dependent growth,MCF-7 cells,45%
same,pIC50,MCF-7 cells; 96 h,5.10
same,"toxicity, body weight",[1],No toxicity or significant body weight decrease
CSCC[C@H](NC(=O)[C@@H](N)CCC(N)=O)C(=O)N[C@@H](CC(C)C)C(=O)N[C@@H](CO)C(=O)N[C@@H](CC(=O)O)C(=O)N[C@@H](CC(C)C)C(=O)N[C@H](C(=O)N[C@@H](CC(C)C)C(=O)N[C@@H](CCC(N)=O)C(=O)N[C@@H](CC(C)C)C(=O)N[C@@H](CCCNC(=N)N)C(=O)N[C@@H](CCCNC(=N)N)C(=O)N[C@@H](CCCNC(=N)N)C(=O)N[C@@H](CCCNC(=N)N)C(=O)N[C@@H](CCCNC(=N)N)C(=O)N[C@@H](CCCNC(=N)N)C(=O)N[C@@H](CCCNC(=N)N)C(=O)N[C@@H](CCCNC(=N)N)C(=O)O)[C@@H](C)O [QMLSDLTLQL-8R] (H-QMLSDLTLQLRRRRRRRR-OH; N-terminus and C-terminus assumed),pIC50,MCF-7 cells,5.10
CSCC[C@H](NC(=O)[C@@H](N)CCC(N)=O)C(=O)N[C@@H](CC(C)C)C(=O)N[C@@H](CO)C(=O)N[C@@H](CC(=O)O)C(=O)N[C@@H](CC(C)C)C(=O)N[C@H](C(=O)N[C@@H](CC(C)C)C(=O)N[C@@H](CCC(N)=O)C(=O)N[C@@H](CC(C)C)C(=O)N[C@@H](CCCNC(=N)N)C(=O)N[C@@H](CCC(N)=O)C(=O)N[C@@H](CCCNC(=N)N)C(=O)N[C@@H](CCCNC(=N)N)C(=O)N[C@@H](CCCNC(=N)N)C(=O)N[C@@H](CCCNC(=N)N)C(=O)N[C@@H](CCCNC(=N)N)C(=O)N[C@@H](CCCNC(=N)N)C(=O)N[C@@H](CCCNC(=N)N)C(=O)N[C@@H](CCCNC(=N)N)C(=O)N[C@@H](CCCNC(=N)N)C(=O)O)[C@@H](C)O [QMLSDLTLQLRQR-8R] (H-QMLSDLTLQLRQRRRRRRRRR-OH; N-terminus and C-terminus assumed),pIC50,MCF-7 cells,5.11
CSCC[C@@H](NC(=O)[C@H]1CCC(=O)NCCCCNC(=O)CC[C@@H](NC(C)=O)C(=O)N[C@H](CC(C)C)C(=O)N[C@H](CC(=O)O)C(=O)N[C@H](CO)C(=O)N1)C(=O)N[C@H](CCC(N)=O)C(N)=O [shRI stapled ERAP No. 12] (Ac-[dE][dL][dD][dS][dE][dM][dQ]-NH2; linker 1-5 via NH(CH2)4NH; N-terminus and C-terminus assumed),duration of significant cell growth inhibitory effects,MCF-7 cells,seven
same,pIC50,MCF-7 cells; 96 h,6.28
same,inhibition of endogenous BIG3-PHB2 complex formation,BIG3-PHB2 interaction,inhibited endogenous BIG3-PHB2 complex formation
CSCC[C@H](NC(=O)[C@H](CCC(N)=O)NC(C)=O)C(=O)N[C@H]1CCC(=O)NCCCCNC(=O)CC[C@@H](C(=O)N[C@@H](CC(C)C)C(=O)N[C@@H](CCC(N)=O)C(=O)N[C@@H](CC(C)C)C(=O)N[C@@H](CCCNC(=N)N)C(=O)N[C@@H](CCC(N)=O)C(=O)N[C@@H](CCCNC(=N)N)C(N)=O)NC(=O)[C@H](CC(C)C)NC(=O)[C@H](CC(=O)O)NC(=O)[C@H](CO)NC1=O [stapled ERAP No. 12],"Papp at 30 min, 30 μM",[2]; 30 μM,0.177 ×10⁻⁶ cm/s
same,Papp at 30 min,"[2]; 30 minutes, 2 or less: very low permeability, read-out: blood-brain barrier permeability coefficient (Papp)",≤ 2 ×10⁻⁶ cm/s
same,"recovery at 30 minutes, 10 μM","[2]; not told, 10 μM, read-out: Recovery Rate",0%
same,"recovery at 30 minutes, 30 μM","[2]; not told, 30 μM, read-out: Recovery Rate",0.01%
same,pIC50,MCF-7 cells; 96 h,6.23
same,"toxicity, body weight",[1],No toxicity or significant body weight decrease
CSCC[C@@H](NC(=O)[C@@H](CCC(N)=O)NC(C)=O)C(=O)N[C@@H]1CCC(=O)NCCCCNC(=O)CC[C@H](C(=O)N[C@H](CC(C)C)C(=O)N[C@H](CCC(N)=O)C(=O)N[C@H](CC(C)C)C(=O)N[C@H](CCCNC(=N)N)C(=O)N[C@H](CCC(N)=O)C(=O)N[C@H](CCCNC(=N)N)C(N)=O)NC(=O)[C@@H](CC(C)C)NC(=O)[C@@H](CC(=O)O)NC(=O)[C@@H](CO)NC1=O [stapled-D-ERAP No. 12],duration of significant cell growth inhibitory effects,MCF-7 cells,seven
same,pIC50,MCF-7 cells; 96 h,6.36
same,effect on MCF-10A cell growth,MCF-10A cells,not inhibited
same,inhibition of endogenous BIG3-PHB2 complex formation,BIG3-PHB2 interaction,inhibited endogenous BIG3-PHB2 complex formation
"QMLSDLTLQLRQR (PHB2-binding peptide derived from BIG3) [ERAP, reference compound]",effect on E2-dependent MCF-7 cell growth,MCF-7 cells,did not show effects
